US11434205B2, “Substituted imidazole carboxylate derivatives and the use thereof” (priority 2018, dated 2022)
Like-named read-outs stand apart in the source and are kept apart here.

Key:
rats [1] = test: Loss of righting reflexes (LORR) assay in rats, ED50 by up and down method; format: in vivo, rat; settings: Rattus norvegicus, tail vein, class symbols
Method in brief: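 ED50 obtained by up-and-down dosing, with righting-reflex loss over 30 s counted as general anesthesia. Compounds injected into the tail vein (0.1 mL/s) of male Sprague-Dawley rats weighing 250-300 g.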

rats [2] = system: rats
Description: Adult male Sprague-Dawley rats (250-300 g) were selected for the experiment. […] The anesthesia effects of the compounds were assessed in rats using a LORR assay and a period >30 s was considered as an indicator of general anesthesia. Then the up and down method was used to determine 50% effective dose (ED50). The drugs were administered through the tail vein of rats in a volume of 0.6 mL and at a rate of 0.1 mL/s.

rats [3] = test: Pharmacological characteristics at equivalent doses (2×ED50) in rats; settings: 2×ED50, tail vein; for Adverse reactions: Red urine (incidence): DMSO solution (DMSO alone 10/10); for Onset time: time of LORR; for Adverse reactions: Tremor (incidence): animals affected/animals
Method in brief: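 Anesthesia onset, recorded as time of LORR, was measured after a 2×ED50 tail-vein injection (0.6 mL, 0.1 mL/s). Animals were male Sprague-Dawley rats of 250-300 g, n=8.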

[4] = system: secretion of corticosterone, H295R cell line; test: cells; format: cell-based; settings: for Corticosterone as an indicator to determine the presence of inhibition: H295R; for EC50: Homo sapiens, NCI-H295R, read-out: EC50 (Corticosterone)
Description: (§1) The Effects of the Compounds on Adrenocortical Function In Vitro Test
(§2) Then secretion of the cortisol and corticosterone in the supernatant, was measured using HPLC-MS/MS method to determine whether the compounds of the present invention had adrenotoxic potential.

[5] = system: secretion of cortisol, H295R cell line; test: cells; format: cell-based; settings: for Cortisol as an indicator to determine the presence of inhibition: H295R; for EC50: Homo sapiens, NCI-H295R, read-out: EC50 (Cortisol)
Description: as §1, §2

rats [6] = format: in vivo, rat; settings: rats of the MAP/HR figures, 2×ED50, tail vein; same value in min
Method in brief: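 Hemodynamic stability judged from mean arterial pressure and heart rate, recorded at 15 s intervals over 30 min pre- and post-dose. Dosing was through a tail-vein indwelling catheter in rats carrying implanted aortic/ventricular catheters and ECG wires, operated ≥1 week earlier.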

rats [7] = system: rats; remark: listed apart in the source
Description: Pharmacological Effects of the Compounds on Continuous Infusion in Rats
Adult male Sprague-Dawley rats with body weight ranging from 250 to 300 gm were selected for continuous infusion test. […] Time to recovery of righting reflex from stopping infusion, and time to fully awake from stopping infusion were recorded.

rats [8] = format: in vivo, rat; settings: rats of the MAP/HR figures, 2×ED50, tail vein
[9] = emulsion, continuous infusion at 2×MIR
[10] = continuous tail vein infusion at 2×MIR, LORR maintained 1 hour, Table C4

Row | SMILES | ED50 (rats [1]) [mg/kg] | Approximate therapeutic index (rats [2]) | Minimal lethal dose (rats [2]) [mg/kg] | Adverse reactions: Restlessness (incidence) (rats [3]) | Righting reflex duration (rats [3]) [min] | Adverse reactions: Red urine (incidence) (rats [3]) | Onset time (rats [3]) [min] | Corticosterone as an indicator to determine the presence of inhibition ([4]; Table A3) | Cortisol as an indicator to determine the presence of inhibition ([5]; Table A3) | EC50 [5] [µM] | recovery time of the test animals' righting reflex (rats [6]) [min] | Recovery time after stopping infusion (rats [7]; after 1 hour infusion at 2×MIR) [min] | Adverse reactions: Tremor (incidence) (rats [7]; continuous infusion 2×MIR) | Onset time (rats [7]; [9]) [min] | recovery time of the test animals' righting reflex (rats [8]) [s] | EC50 [4] [µM] | Corticosterone as an indicator to determine the presence of inhibition ([4]; Table B3) | Cortisol as an indicator to determine the presence of inhibition ([5]; Table B3) | also measured
1 | C[C@H](c1ccccc1)n1cncc1C(=O)OCC1CC(F)(F)C1 [Compound A12] | 0.5 to 1 | >16 | >10 | Restlessness (2/8), Red urine | 4.04 ± 1.65 | (8/8) | 0.16 ± 0.06 | 0 | 0 | > 1 | 4.23 | 13 to 16 | Tremor (4/6) | 3 to 4 | 254 | – | – | – | –
2 | CC(OC(=O)c1cncn1[C@H](C)c1ccccc1)C1CC1 (stereo partly drawn) [Compound A16] | 0.1 to 0.5 | >33 | >10 | – | 2.63 ± 1.20 | 8/8 | 0.16 ± 0.07 | 0 | 0 | > 1 | 2.78 | 12 to 14 | Tremor (3/6) | 2 to 3 | 167 | > 1 | – | – | Adverse reactions: Tremor (incidence) (rats [3]): 2/8
3 | C[C@H](c1ccccc1)n1cncc1C(=O)OC1CCC1 [Compound A17] | 0.5 to 1 | >11 | >6 | – | 5.78 ± 2.28 | Red urine (8/8) | 0.13 ± 0.03 | 0 | 0 | > 10 | 5.45 | 19 to 25 | Tremor (2/6) | 2 to 3 | 327 | > 10 | – | – | Adverse reactions: Tongue stretching (incidence) (rats [3]): Tongue stretching (2/8),
4 | C[C@H](c1ccccc1)n1cncc1C(=O)OCCC1CCC1 [Compound A18] | 0.1 to 0.5 | >22 | >5 | – | 4.77 ± 1.73 | Red urine (8/8) | 0.20 ± 0.09 | 0 | 0 | > 1 | 4.55 | 11 to 15 | Tremor (5/6) | 3 to 4 | 273 | > 1 | – | – | –
5 | C[C@H](c1ccccc1)n1cncc1C(=O)OCC1(C)COC1 [Compound B5] | 0.1 to 0.5 | >11 | >10 | – | 3.98 ± 1.34 | Red urine (8/8) | 0.11 ± 0.02 | – | – | > 1 | 4.25 | 12 to 14 | Tremor (2/6) | 3 to 4 | 255 | > 10 | 0 | 0 | –
6 | CCC1(COC(=O)c2cncn2[C@H](C)c2ccccc2)COC1 [Compound B9] | 0.5 to 1 | >12 | >18 | 1/8 | 1.98 ± 1.21 | 8/8 | 0.39 ± 0.1 | – | – | > 10 | 1.82 | 10 to 13 | 1/6 | 2 to 3 | 109 | > 10 | 0 | 0 | Adverse reactions: Restlessness (incidence) (rats [7]; continuous infusion 2×MIR): 2/6
7 | CCCC1(OC(=O)c2cncn2[C@H](C)c2ccccc2)COC1 [Compound B19] | 0.5 to 1 | >11 | >20 | – | 1.99 ± 1.39 | 8/8 | 0.31 ± 0.13 | – | – | > 10 | 2.08 | 12 to 17 | Tremor (5/6) | 3 to 4 | 125 | > 10 | 0 | 0 | Adverse reactions: Tremor (incidence) (rats [3]): 2/8
8 | CC(=O)C1(OC(=O)c2cncn2[C@H](C)c2ccccc2)COC1 [Compound C3] | 0.5 to 1 | >14 | >10 | Restlessness (3/8), Red | 1.31 ± 0.95 | urine (8/8) | 0.36 ± 0.12 | – | – | > 1 | 1.25 | – | – | – | 75 | > 1 | – | – | Corticosterone as an indicator to determine the presence of inhibition ([4]; Table C3): 0; Cortisol as an indicator to determine the presence of inhibition ([5]; Table C3): 0; Onset time (rats [7]; [10]): 3 to 4 min; Recovery time after stopping infusion (rats [7]; [10]): 10 to 14 min; Types and incidence of adverse reactions (rats [7]; [10]): Restlessness (2/6), Tremor (3/6)
